Laboratory results reported in patent publication US8735609B2, “Bryostatin analogues, synthetic methods and uses” (The Board of Trustees of the Leland Stanford Junior …, priority 2007, dated 2014).

Key:
PKCδ-C1B = biological target: T1, PKCδ-C1B (Mus musculus, UniProt P28867); assay: PKCδ-C1B assay; format: binding
T1 construct: made in house
Method: Phosphatidyl serine vesicles are prepared by the addition of phosphatidyl serine (10 mg/mL in chloroform, 0.4 mL) to a glass test tube followed by removal of the chloroform under a stream of nitrogen (5 min). […] The resulting solution is stored over ice. […] Stock solutions of compounds are diluted with absolute ethanol in glass in serial fashion. […] The tubes are incubated at 37° C. for 90 min. and then put on ice for 5 min. Each tube is then filtered separately through a pre-soaked filter disc. […] The filter is subsequently rinsed with cold 20 mM TRIS buffer (5 mL) dropwise. […] The filters are immediately counted in a scintillation counter (Beckman LS 6000SC). Counts per minute are averaged among three trials at each concentration.

HCC-2998 = assay: NCI human cancer cell line growth inhibition: HCC-2998 (Colon); format: cell-based; conditions: Homo sapiens
SF-268 = assay: NCI human cancer cell line growth inhibition: SF-268 (CNS); format: cell-based; conditions: Homo sapiens
SNB-75 = assay: NCI human cancer cell line growth inhibition: SNB-75 (CNS); format: cell-based; conditions: Homo sapiens
PC-3 = assay: NCI human cancer cell line growth inhibition: PC-3 (Prostate); format: cell-based; conditions: Homo sapiens
DU-145 = assay: NCI human cancer cell line growth inhibition: DU-145 (Prostate); format: cell-based; conditions: Homo sapiens
SK-MEL-5 = assay: NCI human cancer cell line growth inhibition: SK-MEL-5 (Melanoma); format: cell-based; conditions: Homo sapiens
OVCAR-3 = assay: NCI human cancer cell line growth inhibition: OVCAR-3 (Ovarian); format: cell-based; conditions: Homo sapiens
OVCAR-5 = assay: NCI human cancer cell line growth inhibition: OVCAR-5 (Ovarian); format: cell-based; conditions: Homo sapiens
SK-OV-3 = assay: NCI human cancer cell line growth inhibition: SK-OV-3 (Ovarian); format: cell-based; conditions: Homo sapiens
786-0 = assay: NCI human cancer cell line growth inhibition: 786-0 (Renal); format: cell-based; conditions: Homo sapiens
NCI/ADR-RES = format: cell-based, human; conditions: Homo sapiens, Breast, read-out: Growth inhibition (GI50) (converted)

T1 sequence (P28867 231-281 limits assumed): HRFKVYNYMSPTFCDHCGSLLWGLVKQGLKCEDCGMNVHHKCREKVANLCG

CCCCCCCC(=O)O[C@H]1/C(=C/C(=O)OC)C[C@H]2C[C@H](CO)OC(=O)C[C@H](O)C[C@@H]3CCC[C@H](C[C@@H]4CCO[C@H](/C=C/C(C)(C)[C@]1(O)O2)O4)O3 [Formula IIa (702.1)]
Ki (PKCδ-C1B): 0.0003 ± 7e-05 µM | activity in PKCδ-C1B assay compared with the corresponding C26 methyl-containing analogue (PKCδ-C1B; vs Formula 1998a where R^3 is OH): significantly higher activity | GI50 (HCC-2998): 0.0288 µM | GI50 (SF-268): 10.7 µM | GI50 (SNB-75): 10.7 µM | GI50 (PC-3): 2.51 µM | GI50 (DU-145): 9.55 µM | GI50 (SK-MEL-5): 0.372 µM | GI50 (OVCAR-3): 14.8 µM | GI50 (OVCAR-5): 5.25 µM | GI50 (SK-OV-3): 50.1 µM | GI50 (786-0): 3.47 µM | GI50 (NCI/ADR-RES): 18.2 µM
